# From ChEMBL document CHEMBL1201862, “PubChem BioAssay data set” (2004)
#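 Values below derive from 48-hour exposures of cells grown in 96-well plates, with endpoints linearly interpolated between the two concentrations bracketing the appropriate inhibition level. Abbreviation: GI50, concentration required for 50% inhibition of growth.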 Calls of active or inactive are those of the source. No stated cut-off is given here; in the data, active = GI50 up to about 1.1 µM and inactive = higher.
# How the values were obtained:
# Test in all cases: inhibition of tumour cell growth, NCI panel, 48 h
# [1] = tested on: SW-620
# [2] = tested on: NCI-H460
# [3] = tested on: COLO 205
# [4] = tested on: SF-268
# [5] = tested on: SNB-75
# [6] = tested on: MDA-MB-231
# [7] = tested on: NCI/ADR-RES
# [8] = tested on: HOP-62
# [9] = tested on: SK-OV-3
# [10] = tested on: HL-60
# [11] = tested on: TK-10
# [12] = tested on: SK-MEL-5
# [13] = tested on: MCF7
# [14] = tested on: A549
# [15] = tested on: K562
# [16] = tested on: OVCAR-4
# [17] = tested on: UACC-257
# [18] = tested on: SK-MEL-28
# [19] = tested on: A498
# [20] = tested on: ACHN
# [21] = tested on: UACC-62
# [22] = tested on: OVCAR-8
# [23] = tested on: SR
# [24] = tested on: T47D
# [25] = tested on: CCRF-CEM
# [26] = tested on: MDA-N
# [27] = tested on: HCT-15
# [28] = tested on: RPMI-8226
# [29] = tested on: U-251
# [30] = tested on: KM12
# [31] = tested on: SNB-19
# [32] = tested on: HCT-116
# [33] = tested on: HCC 2998
# [34] = tested on: IGROV-1
# [35] = tested on: RXF 393
# [36] = tested on: OVCAR-5
# [37] = tested on: DU-145
# [38] = tested on: CAKI-1
# [39] = tested on: MOLT-4
# [40] = tested on: LOX IMVI
# [41] = tested on: EKVX
# [42] = tested on: Malme-3M
# [43] = tested on: SF-295
# [44] = tested on: MDA-MB-435
# [45] = tested on: NCI-H226
# [46] = tested on: UO-31
# [47] = tested on: BT-549
# [48] = tested on: SF-539
# [49] = tested on: 786-0
# [50] = tested on: SN12C
# [51] = tested on: HT-29
# [52] = tested on: NCI-H23
# [53] = tested on: Hs-578T
# [54] = tested on: M14
# [55] = tested on: NCI-H522
# [56] = tested on: OVCAR-3
# [57] = tested on: PC-3
# [58] = tested on: HOP-92
# [59] = tested on: SK-MEL-2
compound,measurement,setting,value
CC1=C(c2ccc(C)cc2)NC(=S)C(C)C(c2ccc(C)cc2)=N1 (configuration not stated),GI50,[1],> 100 µM (inactive)
same,GI50,[2],> 100 µM (inactive)
same,GI50,[3],> 100 µM (inactive)
same,GI50,[4],> 100 µM (inactive)
same,GI50,[5],> 100 µM (inactive)
same,GI50,[6],> 100 µM (inactive)
same,GI50,[7],> 100 µM (inactive)
same,GI50,[8],85.7 µM (inactive)
same,GI50,[9],> 100 µM (inactive)
same,GI50,[10],30.3 µM (inactive)
same,GI50,[11],> 100 µM (inactive)
same,GI50,[12],60 µM (inactive)
same,GI50,[13],42 µM (inactive)
same,GI50,[14],81.5 µM (inactive)
same,GI50,[15],35.8 µM (inactive)
same,GI50,[16],> 100 µM (inactive)
same,GI50,[17],51.1 µM (inactive)
same,GI50,[18],47.1 µM (inactive)
same,GI50,[19],26 µM (inactive)
same,GI50,[20],50.2 µM (inactive)
same,GI50,[21],89.7 µM (inactive)
same,GI50,[22],> 100 µM (inactive)
same,GI50,[23],> 10 µM (inactive)
same,GI50,[24],37.1 µM (inactive)
same,GI50,[25],27.2 µM (inactive)
same,GI50,[26],83.9 µM (inactive)
same,GI50,[27],82.8 µM
same,GI50,[28],40.6 µM (inactive)
same,GI50,[29],> 100 µM (inactive)
same,GI50,[30],49.7 µM (inactive)
same,GI50,[31],> 100 µM (inactive)
same,GI50,[32],58.5 µM (inactive)
same,GI50,[33],89.3 µM (inactive)
same,GI50,[34],> 100 µM (inactive)
same,GI50,[35],14.7 µM (inactive)
same,GI50,[36],> 100 µM (inactive)
same,GI50,[37],> 100 µM (inactive)
same,GI50,[38],> 100 µM (inactive)
same,GI50,[39],32.8 µM (inactive)
same,GI50,[40],76.2 µM (inactive)
same,GI50,[41],56.6 µM (inactive)
same,GI50,[42],59 µM (inactive)
same,GI50,[43],67.6 µM (inactive)
same,GI50,[44],72.9 µM (inactive)
same,GI50,[45],> 100 µM (inactive)
same,GI50,[46],40.5 µM (inactive)
same,GI50,[47],72.3 µM (inactive)
same,GI50,[48],92.5 µM (inactive)
same,GI50,[49],> 100 µM (inactive)
same,GI50,[50],> 100 µM (inactive)
same,GI50,[51],65.6 µM (inactive)
same,GI50,[52],37 µM (inactive)
CC(ON1[C@](C)(c2ccccc2)CC[C@@]1(C)c1ccccc1)c1ccccc1 (some centres not stated),GI50,[1],37.9 µM (inactive)
same,GI50,[2],36.2 µM (inactive)
same,GI50,[3],43.4 µM (inactive)
same,GI50,[4],58.5 µM (inactive)
same,GI50,[5],25.9 µM (inactive)
same,GI50,[6],43.3 µM (inactive)
same,GI50,[7],48.2 µM (inactive)
same,GI50,[8],83.4 µM (inactive)
same,GI50,[9],> 100 µM (inactive)
same,GI50,[10],23.6 µM (inactive)
same,GI50,[11],> 100 µM (inactive)
same,GI50,[12],30 µM (inactive)
same,GI50,[14],30.9 µM (inactive)
same,GI50,[15],33 µM (inactive)
same,GI50,[53],37.3 µM (inactive)
same,GI50,[16],68.4 µM (inactive)
same,GI50,[17],28.3 µM (inactive)
same,GI50,[54],24.2 µM (inactive)
same,GI50,[55],15.3 µM (inactive)
same,GI50,[18],53.2 µM (inactive)
same,GI50,[22],48.2 µM (inactive)
same,GI50,[24],24.1 µM (inactive)
same,GI50,[25],22.7 µM (inactive)
same,GI50,[27],> 100 µM
same,GI50,[28],22.4 µM (inactive)
same,GI50,[29],31 µM (inactive)
same,GI50,[30],29.4 µM (inactive)
same,GI50,[31],25.5 µM (inactive)
same,GI50,[32],25.4 µM (inactive)
same,GI50,[33],20.9 µM (inactive)
same,GI50,[34],52 µM (inactive)
same,GI50,[35],20.4 µM (inactive)
same,GI50,[36],41.1 µM (inactive)
same,GI50,[56],38.4 µM (inactive)
same,GI50,[37],34.8 µM (inactive)
same,GI50,[38],37.8 µM (inactive)
same,GI50,[39],16.2 µM (inactive)
same,GI50,[40],31.2 µM (inactive)
same,GI50,[57],39.2 µM (inactive)
same,GI50,[41],23.8 µM (inactive)
same,GI50,[42],32.5 µM (inactive)
same,GI50,[43],26.3 µM (inactive)
same,GI50,[58],21.4 µM (inactive)
same,GI50,[44],44.4 µM (inactive)
same,GI50,[45],40.9 µM (inactive)
same,GI50,[46],37.9 µM (inactive)
same,GI50,[47],13.4 µM (inactive)
same,GI50,[48],> 100 µM (inactive)
same,GI50,[49],52.4 µM (inactive)
same,GI50,[50],45.6 µM (inactive)
same,GI50,[51],31.2 µM (inactive)
same,GI50,[52],40 µM (inactive)
same,GI50,[59],20 µM (inactive)
COc1ccc(NC2Oc3cc4c(cc3C(c3cc(OC)c(O)c(OC)c3)C2C)OCO4)cc1 (configuration not stated),GI50,[1],3.5 µM (inactive)
same,GI50,[2],3.83 µM (inactive)
same,GI50,[3],8.87 µM (inactive)
same,GI50,[4],14.7 µM (inactive)
same,GI50,[5],2.11 µM (inactive)
same,GI50,[6],2.65 µM (inactive)
same,GI50,[7],5.66 µM (inactive)
same,GI50,[10],1.79 µM (inactive)
same,GI50,[11],2.23 µM (inactive)
same,GI50,[12],1.96 µM (inactive)
same,GI50,[13],5.71 µM (inactive)
same,GI50,[14],3.56 µM (inactive)
same,GI50,[15],2.69 µM (inactive)
same,GI50,[16],48.2 µM (inactive)
same,GI50,[17],15.1 µM (inactive)
same,GI50,[54],5.36 µM (inactive)
same,GI50,[55],3.33 µM (inactive)
same,GI50,[18],3.73 µM (inactive)
same,GI50,[19],6.79 µM (inactive)
same,GI50,[20],4.01 µM (inactive)
same,GI50,[21],2.74 µM (inactive)
same,GI50,[22],4.45 µM (inactive)
same,GI50,[23],0.202 µM (active)
same,GI50,[24],9.06 µM (inactive)
same,GI50,[26],1.36 µM (inactive)
same,GI50,[27],1.79 µM
same,GI50,[28],3.15 µM (inactive)
same,GI50,[29],4.65 µM (inactive)
same,GI50,[30],4.78 µM (inactive)
same,GI50,[31],21.4 µM (inactive)
same,GI50,[32],4.43 µM (inactive)
same,GI50,[33],5.22 µM (inactive)
same,GI50,[34],5.55 µM (inactive)
same,GI50,[35],7.73 µM (inactive)
same,GI50,[36],7.66 µM (inactive)
same,GI50,[56],5.21 µM (inactive)
same,GI50,[37],7.4 µM (inactive)
same,GI50,[38],10.4 µM (inactive)
same,GI50,[57],4.13 µM (inactive)
same,GI50,[42],5.38 µM (inactive)
same,GI50,[43],4.78 µM (inactive)
same,GI50,[58],23.8 µM (inactive)
same,GI50,[44],0.406 µM (active)
same,GI50,[45],38.3 µM (inactive)
same,GI50,[46],5.97 µM (inactive)
same,GI50,[47],10.4 µM (inactive)
same,GI50,[48],4.2 µM (inactive)
same,GI50,[49],3.72 µM (inactive)
same,GI50,[50],2.76 µM (inactive)
same,GI50,[51],3.82 µM (inactive)
same,GI50,[52],11.2 µM (inactive)
same,GI50,[59],2.25 µM (inactive)
